Columns and labels:
[1] = test system: ISRE reporter signal; assay: ISRE luciferase reporter assay, THP-1 cells co-treated with compound and cGAMP; type: cell-based, Human; conditions: THP-1 cells, 20 μM of each compound, co-treated with cGAMP (1 μg/ml), 24 hours
Description: (§1) Human monocytic THP-1 wild-type (WT) and STING knockout (KO) cell lines were obtained from InvivoGen. Cells were cultured in 1×RPMI 1640 medium containing 10% fetal bovine serum (FBS, Hyclone), 2.05 mM L-glutamine (Hyclone) and 1% penicillin (Corning) in a humidified incubator at 37° C. under 5% CO2.
To confirm immune responses, THP-1 cells were placed in 384-well plates (Grenier), and treated with each compound and cGAMP (1 μg/ml), and after 24 hours, ISRE activity was analyzed. QUANTI-Luc assay (InvivoGen) was performed using the cell culture supernatant to confirm the luciferase reporter gene signal. Fluorescent signals were measured using a TECAN micro plate reader SPARK, and the results were normalized to DMSO control.
(§2) THP-1 cells were co-treated with each of 86 indolizine derivatives and a very small amount of cGAMP (1 μg/ml), the immune response of the THP-1 cells was examined by ISRE reporter assay, and the cytotoxicity of co-treatment was also evaluated (Table 1). All results were compared by normalization to the reporter assay results obtained by treatment with cGAMP alone. […] Thus, Compound 42 was used in subsequent experiments.

[2] = test system: THP-1 cells; assay: Cell viability assay (CellTiter Clo) in THP-1 cells; type: cell-based, Human; conditions: THP-1 cells, 20 μM of each compound, co-treated with cGAMP (1 μg/ml)
Description: as §1
Cells were analyzed using CellTiter Clo (CTG, Promega). […] was measured using a TECAN micro plate reader SPARK. Results were normalized to DMSO control.
as §2

CC(=O)c1ccn2c(C(C)=O)cc(-c3ccccc3)c2c1 [Compound 80]
Normalized RU (relative unit of ISRE reporter signal) [1]: 1.98 | Normalized cell viability [2]: 1.22

CCN(CC)c1ccc(C(=O)c2cc(-c3ccc(OC)cc3)c3cc(C(C)=O)ccn23)cc1 [Compound 39]
Normalized RU (relative unit of ISRE reporter signal) [1]: 1.47 | Normalized cell viability [2]: 1.18

COc1ccc(C(=O)c2cc(-c3ccc(C(F)(F)F)cc3)c3ccccn23)cc1 [Compound 51]
Normalized RU (relative unit of ISRE reporter signal) [1]: 6.08 | Normalized cell viability [2]: 1.32

O=C(c1ccc(C(F)(F)F)cc1)c1cc(-c2ccc(C(F)(F)F)cc2)c2ccccn12 [Compound 41]
Normalized RU (relative unit of ISRE reporter signal) [1]: 3.85 | Normalized cell viability [2]: 1.25

CCCN(CCC)c1ccc(-c2cc(C(=O)c3ccccc3)n3ccccc23)cc1 [Compound 71]
Normalized RU (relative unit of ISRE reporter signal) [1]: 0.96 | Normalized cell viability [2]: 1.01

CC(=O)c1ccn2c(C(=O)c3ccc(C(F)(F)F)cc3)cc(-c3ccc(C(F)(F)F)cc3)c2c1 [Compound 21]
Normalized RU (relative unit of ISRE reporter signal) [1]: 1.86 | Normalized cell viability [2]: 1.19

COc1ccc(C(=O)c2cc(-c3ccc(N(C)C)cc3)c3cc(C(C)=O)ccn23)cc1 [Compound 35]
Normalized RU (relative unit of ISRE reporter signal) [1]: 2.22 | Normalized cell viability [2]: 1.26

CC(=O)c1ccc(-c2cc(C(=O)c3ccc(C(F)(F)F)cc3)n3ccc(C(F)(F)F)cc23)cc1 [Compound 2]
Normalized RU (relative unit of ISRE reporter signal) [1]: 1.42 | Normalized cell viability [2]: 1.03

COc1ccc(-c2cc(C(C)=O)n3ccc(C(C)=O)cc23)cc1 [Compound 81]
Normalized RU (relative unit of ISRE reporter signal) [1]: 2.27 | Normalized cell viability [2]: 1.17

CCN(CC)c1ccc(C(=O)c2cc(-c3ccc(C(C)=O)cc3)c3cc(C(F)(F)F)ccn23)cc1 [Compound 17]
Normalized RU (relative unit of ISRE reporter signal) [1]: 1.45 | Normalized cell viability [2]: 1.29

CC(=O)c1ccn2c(C(=O)c3ccccc3)cc(-c3ccc(C)c(N)c3)c2c1 [Compound 62]
Normalized RU (relative unit of ISRE reporter signal) [1]: 2.86 | Normalized cell viability [2]: 1.23

COc1ccc(-c2cc(C(=O)c3ccccc3)n3ccc(C(C)=O)cc23)cc1 [Compound 29]
Normalized RU (relative unit of ISRE reporter signal) [1]: 1.00 | Normalized cell viability [2]: 1.20

CN(C)c1ccc(-c2cc(C(=O)c3ccc(C(F)(F)F)cc3)n3ccccc23)cc1 [Compound 45]
Normalized RU (relative unit of ISRE reporter signal) [1]: 1.28 | Normalized cell viability [2]: 1.22

CCN(CC)c1ccc(C(=O)c2cc(-c3ccc(C(F)(F)F)cc3)c3cc(C(C)=O)ccn23)cc1 [Compound 36]
Normalized RU (relative unit of ISRE reporter signal) [1]: 3.37 | Normalized cell viability [2]: 1.27

CN(C)c1ccc(-c2cc(C(=O)c3ccccc3)n3ccccc23)cc1 [Compound 50]
Normalized RU (relative unit of ISRE reporter signal) [1]: 1.18 | Normalized cell viability [2]: 1.30

Cc1ccc(-c2cc(C(=O)c3ccccc3)n3ccccc23)cc1N [Compound 68]
Normalized RU (relative unit of ISRE reporter signal) [1]: 3.16 | Normalized cell viability [2]: 1.17

COc1ccc(-c2cc(C(C)=O)n3ccc(C(F)(F)F)cc23)cc1 [Compound 76]
Normalized RU (relative unit of ISRE reporter signal) [1]: 2.02 | Normalized cell viability [2]: 1.14

COc1ccc(-c2cc(C(=O)c3ccccc3)n3ccc(C(F)(F)F)cc23)cc1 [Compound 9]
Normalized RU (relative unit of ISRE reporter signal) [1]: 1.21 | Normalized cell viability [2]: 1.03

O=C(c1ccc(C(F)(F)F)cc1)c1cc(-c2ccccc2)c2ccccn12 [Compound 43]
Normalized RU (relative unit of ISRE reporter signal) [1]: 1.08 | Normalized cell viability [2]: 1.13

COc1ccc(C(=O)c2cc(-c3ccccc3)c3ccccn23)cc1 [Compound 53]
Normalized RU (relative unit of ISRE reporter signal) [1]: 1.30 | Normalized cell viability [2]: 1.18

COc1ccc(C(=O)c2cc(-c3ccc(C(C)=O)cc3)c3cc(C(C)=O)ccn23)cc1 [Compound 32]
Normalized RU (relative unit of ISRE reporter signal) [1]: 2.91 | Normalized cell viability [2]: 1.11

CC(=O)c1ccc(-c2cc(C(=O)c3ccccc3)n3ccccc23)cc1 [Compound 47]
Normalized RU (relative unit of ISRE reporter signal) [1]: 1.15 | Normalized cell viability [2]: 1.12

COc1ccc(C(=O)c2cc(-c3ccc(OC)cc3)c3cc(C(F)(F)F)ccn23)cc1 [Compound 14]
Normalized RU (relative unit of ISRE reporter signal) [1]: 1.48 | Normalized cell viability [2]: 1.30

CC(=O)c1ccc(-c2cc(C(C)=O)n3ccccc23)cc1 [Compound 84]
Normalized RU (relative unit of ISRE reporter signal) [1]: 2.37 | Normalized cell viability [2]: 1.10

CCN(CC)c1ccc(C(=O)c2cc(-c3ccc(OC)cc3)c3ccccn23)cc1 [Compound 59]
Normalized RU (relative unit of ISRE reporter signal) [1]: 1.27 | Normalized cell viability [2]: 1.09

CC(=O)c1ccc(-c2cc(C(=O)c3ccc(C(F)(F)F)cc3)n3ccc(C(C)=O)cc23)cc1 [Compound 22]
Normalized RU (relative unit of ISRE reporter signal) [1]: 1.31 | Normalized cell viability [2]: 1.09

CC(=O)c1cc(-c2ccc(N(C)C)cc2)c2cc(C(F)(F)F)ccn12 [Compound 77]
Normalized RU (relative unit of ISRE reporter signal) [1]: 1.24 | Normalized cell viability [2]: 1.28

CCN(CC)c1ccc(C(=O)c2cc(-c3ccccc3)c3cc(C(F)(F)F)ccn23)cc1 [Compound 18]
Normalized RU (relative unit of ISRE reporter signal) [1]: 1.85 | Normalized cell viability [2]: 1.17

CCN(CC)c1ccc(C(=O)c2cc(-c3ccc(C(C)=O)cc3)c3cc(C(C)=O)ccn23)cc1 [Compound 37]
Normalized RU (relative unit of ISRE reporter signal) [1]: 1.62 | Normalized cell viability [2]: 1.25

CCN(CC)c1ccc(C(=O)c2cc(-c3ccc(C(C)=O)cc3)c3ccccn23)cc1 [Compound 57]
Normalized RU (relative unit of ISRE reporter signal) [1]: 0.93 | Normalized cell viability [2]: 1.40

CC(=O)c1ccc(-c2cc(C(C)=O)n3ccc(C(C)=O)cc23)cc1 [Compound 79]
Normalized RU (relative unit of ISRE reporter signal) [1]: 3.80 | Normalized cell viability [2]: 1.19

CC(=O)c1ccn2c(C(=O)c3ccc(C(F)(F)F)cc3)cc(-c3ccc(N(C)C)cc3)c2c1 [Compound 25]
Normalized RU (relative unit of ISRE reporter signal) [1]: 1.75 | Normalized cell viability [2]: 1.12

Nc1ccc(-c2cc(C(=O)c3ccccc3)n3ccccc23)cc1 [Compound 69]
Normalized RU (relative unit of ISRE reporter signal) [1]: 2.47 | Normalized cell viability [2]: 1.19

COc1ccc(-c2cc(C(C)=O)n3ccccc23)cc1 [Compound 86]
Normalized RU (relative unit of ISRE reporter signal) [1]: 2.46 | Normalized cell viability [2]: 1.22

O=C(c1ccccc1)c1cc(-c2ccccc2)c2cc(C(F)(F)F)ccn12 [Compound 8]
Normalized RU (relative unit of ISRE reporter signal) [1]: 1.18 | Normalized cell viability [2]: 1.06

COc1ccc(C(=O)c2cc(-c3ccc(C(C)=O)cc3)c3cc(C(F)(F)F)ccn23)cc1 [Compound 12]
Normalized RU (relative unit of ISRE reporter signal) [1]: 1.31 | Normalized cell viability [2]: 1.25

CCN(CC)c1ccc(C(=O)c2cc(-c3ccc(N(C)C)cc3)c3cc(C(F)(F)F)ccn23)cc1 [Compound 20]
Normalized RU (relative unit of ISRE reporter signal) [1]: 1.46 | Normalized cell viability [2]: 1.05

CC(=O)c1ccc(-c2cc(C(=O)c3ccccc3)n3ccc(C(C)=O)cc23)cc1 [Compound 27]
Normalized RU (relative unit of ISRE reporter signal) [1]: 1.18 | Normalized cell viability [2]: 1.17

CC(=O)c1cc(-c2ccccc2)c2ccccn12 [Compound 85]
Normalized RU (relative unit of ISRE reporter signal) [1]: 2.90 | Normalized cell viability [2]: 1.22

CC(=O)c1ccc(-c2cc(C(=O)c3ccccc3)n3ccc(C(F)(F)F)cc23)cc1 [Compound 7]
Normalized RU (relative unit of ISRE reporter signal) [1]: 1.54 | Normalized cell viability [2]: 1.20

Reference: US20230390319A1, “INTERFERON GENE STIMULATOR COMPOSITION COMPRISING INDOLIZINE DERIVATIVE AS ACTIVE INGREDIENT” (AJOU UNIVERSITY INDUSTRY-ACADEMIC COOPERATION FOUNDATION, priority 2020, published 2023)
